{"source": "patent US20260193239A1", "about": "“NOVEL COMPOUNDS” (Hoffmann-La Roche Inc., priority 2023, published 2026)", "key": {"[1]": {"target": "T1, P-gp (Homo sapiens, UniProt P08183)", "T1 construct": "expressed in transfected cells; host or cells: LLC-PK1 cells (porcine kidney epithelial cells)", "T1 sequence (P08183 whole entry)": "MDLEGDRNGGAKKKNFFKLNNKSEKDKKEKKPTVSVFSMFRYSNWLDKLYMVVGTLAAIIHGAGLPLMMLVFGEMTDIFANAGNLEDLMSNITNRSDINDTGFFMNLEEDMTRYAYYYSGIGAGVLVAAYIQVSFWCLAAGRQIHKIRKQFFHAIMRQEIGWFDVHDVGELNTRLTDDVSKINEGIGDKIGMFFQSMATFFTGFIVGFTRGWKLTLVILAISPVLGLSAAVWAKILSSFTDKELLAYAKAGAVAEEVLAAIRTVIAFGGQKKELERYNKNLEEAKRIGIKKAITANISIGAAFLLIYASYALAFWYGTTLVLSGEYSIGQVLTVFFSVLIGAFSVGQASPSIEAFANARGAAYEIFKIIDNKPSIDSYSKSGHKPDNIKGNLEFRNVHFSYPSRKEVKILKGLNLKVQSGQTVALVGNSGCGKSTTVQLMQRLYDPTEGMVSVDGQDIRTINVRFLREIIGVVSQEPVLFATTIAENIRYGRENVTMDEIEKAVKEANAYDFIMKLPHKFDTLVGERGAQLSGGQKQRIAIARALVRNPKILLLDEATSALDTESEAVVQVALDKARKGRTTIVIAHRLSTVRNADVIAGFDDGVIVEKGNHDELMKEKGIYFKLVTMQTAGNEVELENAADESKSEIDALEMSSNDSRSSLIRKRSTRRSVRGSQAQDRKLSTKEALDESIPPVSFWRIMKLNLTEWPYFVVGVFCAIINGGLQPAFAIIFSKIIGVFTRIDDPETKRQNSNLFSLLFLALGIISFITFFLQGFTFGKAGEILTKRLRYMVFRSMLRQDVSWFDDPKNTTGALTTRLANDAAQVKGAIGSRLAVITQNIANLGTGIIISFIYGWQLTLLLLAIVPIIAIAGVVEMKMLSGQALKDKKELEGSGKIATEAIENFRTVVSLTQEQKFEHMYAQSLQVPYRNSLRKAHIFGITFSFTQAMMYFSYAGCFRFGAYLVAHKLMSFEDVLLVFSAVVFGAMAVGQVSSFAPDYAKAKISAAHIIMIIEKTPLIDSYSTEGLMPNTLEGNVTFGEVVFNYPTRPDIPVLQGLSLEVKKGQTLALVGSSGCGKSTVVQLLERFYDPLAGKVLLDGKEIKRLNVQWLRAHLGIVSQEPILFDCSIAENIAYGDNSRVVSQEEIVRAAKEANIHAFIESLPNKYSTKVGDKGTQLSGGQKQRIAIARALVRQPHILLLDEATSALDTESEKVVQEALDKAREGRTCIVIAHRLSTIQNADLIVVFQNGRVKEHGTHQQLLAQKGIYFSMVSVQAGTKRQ", "assay": "Transcellular P-gp assay", "assay_type": "in vitro ADME", "details": "LLC-PK1 cells over-expressing human P-gp; for Papp: read-out: Permeation", "description": "The general assay uses transfected LLC-PK1 cells (porcine kidney epithelial cells) over-expressing human or mouse P-gp, cultured on 96 well semi-permeable filter membrane plates, where they form a polarized monolayer with tight junctions, and act as a barrier between the apical and basolateral compartment.\nP-gp is expressed in the apical-facing membrane of the monolayer.\nThe tightness of the cell monolayer and functional activity of P-gp are confirmed by addition of a cell-impermeable marker, Lucifer yellow, and a reference P-gp substrate, edoxaban, respectively."}, "[2]": {"target": "T2, NLRP3 (Homo sapiens, UniProt Q96P20)", "T2 sequence (Q96P20 whole entry)": "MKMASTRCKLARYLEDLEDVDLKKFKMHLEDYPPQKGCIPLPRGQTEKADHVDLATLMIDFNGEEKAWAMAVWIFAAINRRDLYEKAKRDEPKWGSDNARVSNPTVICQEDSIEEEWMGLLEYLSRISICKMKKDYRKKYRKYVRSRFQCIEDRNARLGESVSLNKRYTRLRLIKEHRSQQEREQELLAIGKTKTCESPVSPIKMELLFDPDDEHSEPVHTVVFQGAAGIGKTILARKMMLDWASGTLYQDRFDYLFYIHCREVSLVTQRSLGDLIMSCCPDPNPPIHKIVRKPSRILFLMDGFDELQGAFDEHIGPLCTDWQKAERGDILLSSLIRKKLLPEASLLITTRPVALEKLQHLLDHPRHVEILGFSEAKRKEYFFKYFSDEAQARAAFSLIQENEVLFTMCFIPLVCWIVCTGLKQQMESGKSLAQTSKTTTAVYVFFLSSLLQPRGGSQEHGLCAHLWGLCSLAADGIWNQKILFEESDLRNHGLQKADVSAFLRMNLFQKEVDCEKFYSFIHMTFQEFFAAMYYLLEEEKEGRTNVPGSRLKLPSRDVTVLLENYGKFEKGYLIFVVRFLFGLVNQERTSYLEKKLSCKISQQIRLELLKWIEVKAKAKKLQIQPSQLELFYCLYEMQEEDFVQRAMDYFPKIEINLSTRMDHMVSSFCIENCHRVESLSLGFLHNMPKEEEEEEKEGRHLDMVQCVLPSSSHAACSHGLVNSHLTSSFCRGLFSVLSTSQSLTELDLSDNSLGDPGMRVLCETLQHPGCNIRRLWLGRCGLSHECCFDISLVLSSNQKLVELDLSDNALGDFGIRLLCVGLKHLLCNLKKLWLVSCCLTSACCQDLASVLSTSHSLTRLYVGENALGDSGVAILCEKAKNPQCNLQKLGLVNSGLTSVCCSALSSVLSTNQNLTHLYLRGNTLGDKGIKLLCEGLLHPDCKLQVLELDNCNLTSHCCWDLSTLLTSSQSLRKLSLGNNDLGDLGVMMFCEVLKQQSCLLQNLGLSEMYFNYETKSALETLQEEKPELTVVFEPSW", "assay": "THP-1 cells pyroptosis assay", "assay_type": "cell-based", "parameters": "Seed THP-1 cells (25,000 cells/well) containing 1.0 μg/ml LPS; host or cells: THP-1 cells, LPS-primed and nigericin-stimulated", "details": "1 μg/ml LPS, nigericin 5 μM, resazurin readout", "experimental": "The cells were routinely passaged and grown to confluency (~10^6 cells/ml). On the day of the experiment, THP-1 cells were harvested and resuspended into RPMI medium (without FBS). […] To this diluted cell solution was added LPS (Sigma #L4524) to give a 1 μg/ml Final Assay Concentration (FAC). 40 μl of the final preparation was aliquoted into each well of a 96-well plate. The plate thus prepared was used for compound screening."}, "[3]": {"target": "T2, NLRP3", "assay": "Human whole blood IL-1β release assay", "assay_type": "cell-based", "parameters": "Human whole blood in Li-heparin tubes was obtained from healthy donors; from tissue; host or cells: human whole blood from healthy donors, LPS-primed and nigericin-stimulated", "details": "1 μg/ml LPS, nigericin 10 μM, IL-1β by AlphaLisa", "description": "For systemic delivery, the ability to inhibit NLRP3 when the compounds are present within the bloodstream is of great importance. For this reason, the NLRP3 inhibitory activity of a number of compounds in human whole blood was investigated in accordance with the following protocol.\nHuman whole blood in Li-heparin tubes was obtained from healthy donors from a volunteer donor panel."}}, "data": [{"molecule": "CCN1CCC[C@@H](Nc2nnc(-c3c(C)cc4c(c3O)CCO4)n(CC)c2=O)C1", "note": "(atropisomer, axis not shown) [Example 2b, P-4-ethyl-6-[[(3R)-1-ethyl-3-piperidyl]amino]-3-(4-hydroxy-6-methyl-2,3-dihydrobenzofuran-5-yl)-1,2,4-triazin-5-one]", "values": [{"measurement": "efflux ratio", "setting": "[1]", "value": 8}, {"measurement": "Papp", "setting": "[1]", "value": 3.7, "unit": "×10⁻⁶ cm/s"}]}, {"molecule": "CCN1CCC[C@@H](Nc2nnc(-c3c(CO)cc4c(c3O)CCO4)n(C)c2=O)C1", "note": "(atropisomer, axis not shown) [Example 5, 3-[4-Hydroxy-6-(hydroxymethyl)-2,3-dihydrobenzofuran-5-yl]-4-methyl-6-[[(3R)-1-ethyl-3-piperidyl]amino]-1,2,4-triazin-5-one]", "values": [{"measurement": "IC50", "setting": "[2]", "value": 139, "unit": "nM"}]}, {"molecule": "CCN1CCC[C@@H](Nc2nnc(-c3c(CO)cc4c(c3O)CCO4)n(C)c2=O)C1", "note": "(atropisomer, axis not shown) [Example 5a, (M or P)-3-[4-Hydroxy-6-(hydroxymethyl)-2,3-dihydrobenzofuran-5-yl]-4-methyl-6-[[(3R)-1-ethyl-3-piperidyl]amino]-1,2,4-triazin-5-one]", "values": [{"measurement": "IC50", "setting": "[2]", "value": 84, "unit": "nM"}, {"measurement": "IC50", "setting": "[3]", "value": 103, "unit": "nM"}]}, {"molecule": "CCc1cc2c(c(O)c1-c1nnc(N[C@@H]3CCCN(CCO)C3)c(=O)n1C)CCO2", "note": "(atropisomer, axis not shown) [Example 8b, P-3-(6-ethyl-4-hydroxy-2,3-dihydrobenzofuran-5-yl)-6-[[(3R)-1-(2-hydroxyethyl)-3-piperidyl]amino]-4-methyl-1,2,4-triazin-5-one]", "values": [{"measurement": "efflux ratio", "setting": "[1]", "value": 1}, {"measurement": "Papp", "setting": "[1]", "value": 0.9, "unit": "×10⁻⁶ cm/s"}, {"measurement": "IC50", "setting": "[2]", "value": 16, "unit": "nM"}, {"measurement": "IC50", "setting": "[3]", "value": 64, "unit": "nM"}]}, {"molecule": "CCn1c(-c2c(C)cc3c(c2O)CCO3)nnc(N[C@@H]2CCCN(CCO)C2)c1=O", "note": "(atropisomer, axis not shown) [Example 9b, (P or M)-4-ethyl-6-[[(3R)-1-(2-hydroxyethyl)-3-piperidyl]amino]-3-(4-hydroxy-6-methyl-2,3-dihydrobenzofuran-5-yl)-1,2,4-triazin-5-one]", "values": [{"measurement": "efflux ratio", "setting": "[1]", "value": 2}, {"measurement": "Papp", "setting": "[1]", "value": 0.8, "unit": "×10⁻⁶ cm/s"}, {"measurement": "IC50", "setting": "[2]", "value": 118, "unit": "nM"}, {"measurement": "IC50", "setting": "[3]", "value": 204, "unit": "nM"}]}, {"molecule": "CCN1CCC[C@@H](Nc2nnc(-c3c(C)cc(C(F)(F)F)cc3O)n(C)c2=O)C1", "note": "(atropisomer, axis not shown) [Reference Example RE-B, 6-[[(3R)-1-Ethyl-3-piperidyl]amino]-3-[2-hydroxy-6-methyl-4-(trifluoromethyl)phenyl]-4-methyl-1,2,4-triazin-5-one, reference compound]", "values": [{"measurement": "efflux ratio", "setting": "[1]", "value": 7.6}, {"measurement": "Papp", "setting": "[1]", "value": 5.6, "unit": "×10⁻⁶ cm/s"}]}, {"molecule": "CCc1cc2c(c(O)c1-c1nnc(N[C@@H]3CCCN(CC)C3)c(=O)n1C)CCO2", "note": "(single isomer, unassigned) [Example 1b]", "values": [{"measurement": "efflux ratio", "setting": "[1]", "value": 11}, {"measurement": "Papp", "setting": "[1]", "value": 4.5, "unit": "×10⁻⁶ cm/s"}]}, {"molecule": "CCN1CCC[C@@H](Nc2nnc(-c3c(C)cc4c(c3O)CCO4)n(C)c2=O)C1", "note": "(single isomer, unassigned) [Example 3b]", "values": [{"measurement": "efflux ratio", "setting": "[1]", "value": 10}, {"measurement": "Papp", "setting": "[1]", "value": 5.3, "unit": "×10⁻⁶ cm/s"}]}, {"molecule": "CCN1CCC[C@@H](Nc2nnc(-c3c(CO)cc4c(c3O)CCO4)n(C)c2=O)C1", "note": "(single isomer, unassigned) [Example 5b, (P or M)-3-[4-Hydroxy-6-(hydroxymethyl)-2,3-dihydrobenzofuran-5-yl]-4-methyl-6-[[(3R)-1-ethyl-3-piperidyl]amino]-1,2,4-triazin-5-one]", "values": [{"measurement": "IC50", "setting": "[2]", "value": 966, "unit": "nM"}]}, {"molecule": "CCN1CCC[C@@H](Nc2nnc(-c3c(COC)cc4c(c3O)CCO4)n(C)c2=O)C1", "note": "(single isomer, unassigned) [Example 6a, (M or P)-3-[4-Hydroxy-6-(methoxymethyl)-2,3-dihydrobenzofuran-5-yl]-4-methyl-6-[[(3R)-1-ethyl-3-piperidyl]amino]-1,2,4-triazin-5-one]", "values": [{"measurement": "IC50", "setting": "[2]", "value": "> 1000", "unit": "nM"}]}, {"molecule": "CCN1CCC[C@@H](Nc2nnc(-c3c(COC)cc4c(c3O)CCO4)n(C)c2=O)C1", "note": "(single isomer, unassigned) [Example 6b]", "values": [{"measurement": "efflux ratio", "setting": "[1]", "value": 1}, {"measurement": "Papp", "setting": "[1]", "value": 1.1, "unit": "×10⁻⁶ cm/s"}, {"measurement": "IC50", "setting": "[2]", "value": 15, "unit": "nM"}, {"measurement": "IC50", "setting": "[3]", "value": 29, "unit": "nM"}]}, {"molecule": "CCN1CCCC(Nc2nnc(-c3c(COC)cc4c(c3O)CCC4)n(C)c2=O)C1", "note": "[Example 7b, P-6-[[(3R)-1-ethyl-3-piperidyl]amino]-3-[4-hydroxy-6-(methoxymethyl)indan-5-yl]-4-methyl-1,2,4-triazin-5-one]", "values": [{"measurement": "efflux ratio", "setting": "[1]", "value": 12}, {"measurement": "Papp", "setting": "[1]", "value": 5.1, "unit": "×10⁻⁶ cm/s"}]}, {"molecule": "CCN1CCC[C@@H](Nc2nnc(-c3ccc4c(c3O)CCO4)n(C)c2=O)C1", "note": "[Reference Example RE-A, 6-[[(3R)-1-Ethyl-3-piperidyl]amino]-3-(4-hydroxy-2,3-dihydrobenzofuran-5-yl)-4-methyl-1,2,4-triazin-5-one, reference compound]", "values": [{"measurement": "Permeation", "setting": "[1]", "value": 24.9, "unit": "×10⁻⁶ cm/s"}]}]}
